Reference: PubChem BioAssay (NCI)
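Step 1: Grow cells in 96-well plates. Step 2: Expose to compound for 48 hours at 5 concentrations. Step 3: Interpolate endpoints linearly; if unreached, use highest concentration. GI50 = concentration required for 50% inhibition of growth. At the TGI there is no net growth.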

What was measured:
Assay in all cases: growth of human tumour cells (NCI), 48 h
RPMI-8226 leukemia = tested on: RPMI-8226 leukemia
HS 578T breast = tested on: HS 578T breast
MOLT-4 leukemia = tested on: MOLT-4 leukemia
UO-31 renal = tested on: UO-31 renal
NCI/ADR-RES ovarian = tested on: NCI/ADR-RES ovarian
A498 renal = tested on: A498 renal
786-0 renal = tested on: 786-0 renal
OVCAR-5 ovarian = tested on: OVCAR-5 ovarian
A549 NSCLC = tested on: A549 NSCLC
NCI-H460 lung = tested on: NCI-H460 lung
HOP-62 NSCLC = tested on: HOP-62 NSCLC
OVCAR-3 ovarian = tested on: OVCAR-3 ovarian
SK-MEL-28 melanoma = tested on: SK-MEL-28 melanoma
U251 CNS = tested on: U251 CNS
BT-549 breast = tested on: BT-549 breast
SR leukemia = tested on: SR leukemia
SK-OV-3 ovarian = tested on: SK-OV-3 ovarian
SW-620 colon = tested on: SW-620 colon
NCI-H23 lung = tested on: NCI-H23 lung
KM12 colon = tested on: KM12 colon
HCC-2998 colon = tested on: HCC-2998 colon
NCI-H522 lung = tested on: NCI-H522 lung
MDA-MB-231 breast = tested on: MDA-MB-231 breast
SF-539 CNS = tested on: SF-539 CNS
COLO 205 colon = tested on: COLO 205 colon
OVCAR-8 ovarian = tested on: OVCAR-8 ovarian
CCRF-CEM leukemia = tested on: CCRF-CEM leukemia
IGROV1 ovarian = tested on: IGROV1 ovarian
K-562 leukemia = tested on: K-562 leukemia
DU-145 prostate = tested on: DU-145 prostate
SF-295 CNS = tested on: SF-295 CNS
UACC-257 melanoma = tested on: UACC-257 melanoma
SK-MEL-2 melanoma = tested on: SK-MEL-2 melanoma
HOP-92 NSCLC = tested on: HOP-92 NSCLC
OVCAR-4 ovarian = tested on: OVCAR-4 ovarian
UACC-62 melanoma = tested on: UACC-62 melanoma
NCI-H226 lung = tested on: NCI-H226 lung
CAKI-1 renal = tested on: CAKI-1 renal
HT29 colon = tested on: HT29 colon
HCT-116 colon = tested on: HCT-116 colon
MALME-3M melanoma = tested on: MALME-3M melanoma
MCF7 breast = tested on: MCF7 breast
RXF 393 renal = tested on: RXF 393 renal
PC-3 prostate = tested on: PC-3 prostate
SK-MEL-5 melanoma = tested on: SK-MEL-5 melanoma
SNB-19 CNS = tested on: SNB-19 CNS
SN12C renal = tested on: SN12C renal
HCT-15 colon = tested on: HCT-15 colon
SF-268 CNS = tested on: SF-268 CNS
SNB-75 CNS = tested on: SNB-75 CNS
T-47D breast = tested on: T-47D breast
ACHN renal = tested on: ACHN renal
TK-10 renal = tested on: TK-10 renal
M14 melanoma = tested on: M14 melanoma
MDA-MB-435 = tested on: MDA-MB-435
LOX IMVI melanoma = tested on: LOX IMVI melanoma

`C[C@@H]1CC[C@H]2C(CN(C)CC3=C(C(F)(F)F)O[C@@H]4O[C@@]5(C)CC[C@H]6[C@H](C)CC[C@@H]3[C@@]46OO5)=C(C(F)(F)F)O[C@@H]3O[C@@]4(C)CC[C@@H]1[C@]32OO4` was tested, and the GI50 (RPMI-8226 leukemia) was 0.82 µM, the TGI (RPMI-8226 leukemia) was > 49.6 µM and the GI50 (HS 578T breast) was 2.25 µM. The GI50 (MOLT-4 leukemia) was > 25.4 µM, the TGI (MOLT-4 leukemia) was > 100 µM and the GI50 (UO-31 renal) was 2.86 µM. The GI50 (NCI/ADR-RES ovarian) was 16.8 µM, the TGI (NCI/ADR-RES ovarian) was > 59.2 µM and the GI50 (A498 renal) was 3.92 µM. For the same compound, the TGI (A498 renal) was > 100 µM, the GI50 (786-0 renal) was 4.03 µM and the TGI (786-0 renal) was 41.7 µM. For the same compound, the GI50 (OVCAR-5 ovarian) was 0.935 µM, the TGI (OVCAR-5 ovarian) was > 100 µM and the GI50 (A549 NSCLC) was 1.58 µM. The TGI (A549 NSCLC) was > 45.4 µM, the GI50 (NCI-H460 lung) was 1.32 µM and the TGI (NCI-H460 lung) was > 56.9 µM. The GI50 (HOP-62 NSCLC) was 34.4 µM, the TGI (HOP-62 NSCLC) was > 100 µM and the GI50 (OVCAR-3 ovarian) was 0.419 µM. For the same compound, the TGI (OVCAR-3 ovarian) was 12.1 µM, the GI50 (SK-MEL-28 melanoma) was > 32.8 µM and the TGI (SK-MEL-28 melanoma) was > 100 µM. The GI50 (U251 CNS) was 0.405 µM, the TGI (U251 CNS) was 22.6 µM and the GI50 (BT-549 breast) was 14.3 µM. For the same compound, the TGI (BT-549 breast) was 54.4 µM, the GI50 (SR leukemia) was 81.9 µM and the TGI (SR leukemia) was > 100 µM. The GI50 (SK-OV-3 ovarian) was > 100 µM, the TGI (SK-OV-3 ovarian) was > 100 µM and the GI50 (SW-620 colon) was 0.65 µM. For the same compound, the TGI (SW-620 colon) was 53.3 µM, the GI50 (NCI-H23 lung) was 0.818 µM and the TGI (NCI-H23 lung) was 27 µM. For the same compound, the GI50 (KM12 colon) was 0.381 µM, the TGI (KM12 colon) was 20.1 µM and the GI50 (HCC-2998 colon) was 18.9 µM. For the same compound, the TGI (HCC-2998 colon) was > 59.5 µM, the GI50 (NCI-H522 lung) was 2.67 µM and the GI50 (MDA-MB-231 breast) was 5.9 µM. The TGI (MDA-MB-231 breast) was > 93.1 µM, the GI50 (SF-539 CNS) was 0.488 µM and the TGI (SF-539 CNS) was > 100 µM. The GI50 (COLO 205 colon) was 0.728 µM, the TGI (COLO 205 colon) was > 100 µM and the GI50 (OVCAR-8 ovarian) was 1.58 µM. The TGI (OVCAR-8 ovarian) was > 53.6 µM, the GI50 (CCRF-CEM leukemia) was 1.31 µM and the TGI (CCRF-CEM leukemia) was > 42.9 µM. The GI50 (IGROV1 ovarian) was 2.3 µM, the TGI (IGROV1 ovarian) was > 23.9 µM and the TGI (K-562 leukemia) was > 42.6 µM. For the same compound, the GI50 (DU-145 prostate) was 2.69 µM, the TGI (DU-145 prostate) was 16.8 µM and the TGI (SF-295 CNS) was > 51.5 µM. The GI50 (UACC-257 melanoma) was 1.9 µM, the TGI (UACC-257 melanoma) was > 51.1 µM and the GI50 (SK-MEL-2 melanoma) was > 37.1 µM. The TGI (SK-MEL-2 melanoma) was > 80.7 µM, the GI50 (HOP-92 NSCLC) was 11.4 µM and the TGI (HOP-92 NSCLC) was > 94.4 µM. The GI50 (OVCAR-4 ovarian) was 1.12 µM, the TGI (OVCAR-4 ovarian) was 56.6 µM and the GI50 (UACC-62 melanoma) was 12.4 µM. For the same compound, the TGI (UACC-62 melanoma) was > 100 µM, the GI50 (NCI-H226 lung) was 3.71 µM and the TGI (NCI-H226 lung) was > 64.9 µM. It also gave a GI50 (CAKI-1 renal) of 3.19 µM, a TGI (CAKI-1 renal) of 18.2 µM and a GI50 (HT29 colon) of 2.76 µM. The TGI (HT29 colon) was > 100 µM, the GI50 (HCT-116 colon) was 0.415 µM and the TGI (HCT-116 colon) was 32.9 µM. For the same compound, the GI50 (MALME-3M melanoma) was 1.06 µM, the TGI (MALME-3M melanoma) was > 83.9 µM and the GI50 (MCF7 breast) was 1.56 µM. The TGI (MCF7 breast) was > 100 µM, the GI50 (RXF 393 renal) was 2.83 µM and the TGI (RXF 393 renal) was > 100 µM. The GI50 (PC-3 prostate) was 0.231 µM, the TGI (PC-3 prostate) was > 100 µM and the GI50 (SK-MEL-5 melanoma) was 1.86 µM. For the same compound, the TGI (SK-MEL-5 melanoma) was 18.9 µM, the GI50 (SNB-19 CNS) was 23.6 µM and the TGI (SNB-19 CNS) was > 100 µM. The GI50 (SN12C renal) was 7.47 µM, the TGI (SN12C renal) was > 100 µM and the GI50 (HCT-15 colon) was 0.506 µM. For the same compound, the TGI (HCT-15 colon) was > 100 µM, the GI50 (SF-268 CNS) was 2.82 µM and the TGI (SF-268 CNS) was > 95.7 µM. For the same compound, the TGI (SNB-75 CNS) was > 23.9 µM, the GI50 (T-47D breast) was 0.236 µM and the TGI (T-47D breast) was 39.7 µM. The GI50 (ACHN renal) was 1.81 µM, the TGI (ACHN renal) was 14.9 µM and the GI50 (TK-10 renal) was 4.93 µM. For the same compound, the TGI (TK-10 renal) was > 54.2 µM, the GI50 (M14 melanoma) was 2.69 µM and the TGI (M14 melanoma) was > 100 µM. For the same compound, the GI50 (MDA-MB-435) was 0.549 µM, the TGI (MDA-MB-435) was 40.2 µM and the GI50 (LOX IMVI melanoma) was 0.715 µM. For the same compound, the TGI (LOX IMVI melanoma) was 1.98 µM.
